According to the supplement of paper PMC10307832:

Tests used:
Test in all cases: relative viability (nuclei count vs DMSO), 5 days (fraction); higher = more cells survive
A-427 = tested on: A-427
Outline: (§1)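 One day after seeding in 1536-well plates, lung cancer cell lines were dosed by pin tool. Dosing was either single-drug or a fixed anchor-drug dose plus five library-drug doses (not always all listed) in √10 steps. After 5 days, nuclei were stained in one fix-and-stain step and counted on 4× images, and relative viability is the nuclei count of treated wells over that of vehicle wells, given as the median of duplicate plates.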

CAL-12T = tested on: CAL-12T
Outline: as §1

COR-L 105 = tested on: COR-L 105
Outline: as §1

EPLC-272H = tested on: EPLC-272H
Outline: as §1

HCC-15 = tested on: HCC-15
Outline: as §1

HCC-44 = tested on: HCC-44
Outline: as §1

LC-2-ad = tested on: LC-2-ad
Outline: as §1

LCLC-97TM1 = tested on: LCLC-97TM1
Outline: as §1

NCI-H1395 = tested on: NCI-H1395
Outline: as §1

NCI-H1563 = tested on: NCI-H1563
Outline: as §1

NCI-H1734 = tested on: NCI-H1734
Outline: as §1

NCI-H1792 = tested on: NCI-H1792
Outline: as §1

NCI-H1915 = tested on: NCI-H1915
Outline: as §1

NCI-H1975 = tested on: NCI-H1975
Outline: as §1

NCI-H2023 = tested on: NCI-H2023
Outline: as §1

NCI-H2342 = tested on: NCI-H2342
Outline: as §1

NCI-H2347 = tested on: NCI-H2347
Outline: as §1

NCI-H2405 = tested on: NCI-H2405
Outline: as §1

NCI-H520 = tested on: NCI-H520
Outline: as §1

NCI-H838 = tested on: NCI-H838
Outline: as §1

SW 1573 = tested on: SW 1573
Outline: as §1

SW 900 = tested on: SW 900
Outline: as §1

UMC-11 = tested on: UMC-11
Outline: as §1

## Cc1csc(=NC2CCCCC2)n1/N=C/c1ccc(O)c(O)c1O [MIM1] + Nc1nc2[nH]cc(CCc3ccc(C(=O)N[C@@H](CCC(=O)O)C(=O)O)cc3)c2c(=O)[nH]1 [Pemetrexed] (partner 0.2 µM)
A-427; first compound 0.2 µM
  relative viability: 1.02
A-427; first compound 0.6325 µM
  relative viability: 0.947
A-427; first compound 2 µM
  relative viability: 0.989
A-427; first compound 6.325 µM
  relative viability: 0.901
A-427; first compound 20 µM
  relative viability: 0.343
CAL-12T; first compound 0.2 µM
  relative viability: 1.25
CAL-12T; first compound 0.6325 µM
  relative viability: 1.07
CAL-12T; first compound 2 µM
  relative viability: 1.04
CAL-12T; first compound 6.325 µM
  relative viability: 0.847
CAL-12T; first compound 20 µM
  relative viability: 0.925
COR-L 105; first compound 0.2 µM
  relative viability: 1.02
COR-L 105; first compound 0.6325 µM
  relative viability: 1.13
COR-L 105; first compound 2 µM
  relative viability: 0.882
COR-L 105; first compound 6.325 µM
  relative viability: 0.933
COR-L 105; first compound 20 µM
  relative viability: 1.04
EPLC-272H; first compound 0.2 µM
  relative viability: 0.328
EPLC-272H; first compound 0.6325 µM
  relative viability: 0.372
EPLC-272H; first compound 2 µM
  relative viability: 0.27
EPLC-272H; first compound 6.325 µM
  relative viability: 0.157
EPLC-272H; first compound 20 µM
  relative viability: 0.166
HCC-15; first compound 0.2 µM
  relative viability: 0.217
HCC-15; first compound 0.6325 µM
  relative viability: 0.225
HCC-15; first compound 2 µM
  relative viability: 0.225
HCC-15; first compound 6.325 µM
  relative viability: 0.239
HCC-15; first compound 20 µM
  relative viability: 0.162
HCC-44; first compound 0.2 µM
  relative viability: 0.689
HCC-44; first compound 0.6325 µM
  relative viability: 0.566
HCC-44; first compound 2 µM
  relative viability: 0.601
HCC-44; first compound 6.325 µM
  relative viability: 0.468
HCC-44; first compound 20 µM
  relative viability: 0.401
LC-2-ad; first compound 0.2 µM
  relative viability: 0.293
LC-2-ad; first compound 0.6325 µM
  relative viability: 0.292
LC-2-ad; first compound 2 µM
  relative viability: 0.287
LC-2-ad; first compound 6.325 µM
  relative viability: 0.268
LC-2-ad; first compound 20 µM
  relative viability: 0.232
LCLC-97TM1; first compound 0.2 µM
  relative viability: 0.147
LCLC-97TM1; first compound 0.6325 µM
  relative viability: 0.142
LCLC-97TM1; first compound 2 µM
  relative viability: 0.167
LCLC-97TM1; first compound 6.325 µM
  relative viability: 0.172
LCLC-97TM1; first compound 20 µM
  relative viability: 0.054
NCI-H1395; first compound 0.2 µM
  relative viability: 0.848
NCI-H1395; first compound 0.6325 µM
  relative viability: 0.743
NCI-H1395; first compound 2 µM
  relative viability: 0.8
NCI-H1395; first compound 6.325 µM
  relative viability: 0.697
NCI-H1395; first compound 20 µM
  relative viability: 0.341
NCI-H1563; first compound 0.2 µM
  relative viability: 0.883
NCI-H1563; first compound 0.6325 µM
  relative viability: 0.905
NCI-H1563; first compound 2 µM
  relative viability: 0.651
NCI-H1563; first compound 6.325 µM
  relative viability: 0.786
NCI-H1563; first compound 20 µM
  relative viability: 0.481
NCI-H1734; first compound 0.2 µM
  relative viability: 0.424
NCI-H1734; first compound 0.6325 µM
  relative viability: 0.448
NCI-H1734; first compound 2 µM
  relative viability: 0.478
NCI-H1734; first compound 6.325 µM
  relative viability: 0.412
NCI-H1734; first compound 20 µM
  relative viability: 0.179
NCI-H1792; first compound 0.2 µM
  relative viability: 0.682
NCI-H1792; first compound 0.6325 µM
  relative viability: 0.644
NCI-H1792; first compound 2 µM
  relative viability: 1.02
NCI-H1792; first compound 6.325 µM
  relative viability: 0.716
NCI-H1792; first compound 20 µM
  relative viability: 0.685
NCI-H1915; first compound 0.2 µM
  relative viability: 0.501
NCI-H1915; first compound 0.6325 µM
  relative viability: 0.42
NCI-H1915; first compound 2 µM
  relative viability: 0.487
NCI-H1915; first compound 6.325 µM
  relative viability: 0.329
NCI-H1915; first compound 20 µM
  relative viability: 0.335
NCI-H1975; first compound 0.2 µM
  relative viability: 0.289
NCI-H1975; first compound 0.6325 µM
  relative viability: 0.317
NCI-H1975; first compound 2 µM
  relative viability: 0.28
NCI-H1975; first compound 6.325 µM
  relative viability: 0.223
NCI-H1975; first compound 20 µM
  relative viability: 0.187
NCI-H2023; first compound 0.2 µM
  relative viability: 0.235
NCI-H2023; first compound 0.6325 µM
  relative viability: 0.337
NCI-H2023; first compound 2 µM
  relative viability: 0.219
NCI-H2023; first compound 6.325 µM
  relative viability: 0.098
NCI-H2023; first compound 20 µM
  relative viability: 0.0763
NCI-H2342; first compound 0.2 µM
  relative viability: 0.719
NCI-H2342; first compound 0.6325 µM
  relative viability: 0.768
NCI-H2342; first compound 2 µM
  relative viability: 0.75
NCI-H2342; first compound 6.325 µM
  relative viability: 0.751
NCI-H2342; first compound 20 µM
  relative viability: 0.757
NCI-H2347; first compound 0.2 µM
  relative viability: 0.465
NCI-H2347; first compound 0.6325 µM
  relative viability: 0.422
NCI-H2347; first compound 2 µM
  relative viability: 0.415
NCI-H2347; first compound 6.325 µM
  relative viability: 0.421
NCI-H2347; first compound 20 µM
  relative viability: 0.399
NCI-H2405; first compound 0.2 µM
  relative viability: 0.945
NCI-H2405; first compound 0.6325 µM
  relative viability: 0.98
NCI-H2405; first compound 2 µM
  relative viability: 1.17
NCI-H2405; first compound 6.325 µM
  relative viability: 0.752
NCI-H2405; first compound 20 µM
  relative viability: 0.584
NCI-H520; first compound 0.2 µM
  relative viability: 0.693
NCI-H520; first compound 0.6325 µM
  relative viability: 0.722
NCI-H520; first compound 2 µM
  relative viability: 0.752
NCI-H520; first compound 6.325 µM
  relative viability: 0.547
NCI-H520; first compound 20 µM
  relative viability: 0.306
NCI-H838; first compound 0.2 µM
  relative viability: 0.244
NCI-H838; first compound 0.6325 µM
  relative viability: 0.376
NCI-H838; first compound 2 µM
  relative viability: 0.243
NCI-H838; first compound 6.325 µM
  relative viability: 0.269
NCI-H838; first compound 20 µM
  relative viability: 0.226
SW 1573; first compound 0.2 µM
  relative viability: 0.851
SW 1573; first compound 0.6325 µM
  relative viability: 0.93
SW 1573; first compound 2 µM
  relative viability: 0.877
SW 1573; first compound 6.325 µM
  relative viability: 0.791
SW 1573; first compound 20 µM
  relative viability: 0.18
SW 900; first compound 0.2 µM
  relative viability: 0.504
SW 900; first compound 0.6325 µM
  relative viability: 0.465
SW 900; first compound 2 µM
  relative viability: 0.499
SW 900; first compound 6.325 µM
  relative viability: 0.349
SW 900; first compound 20 µM
  relative viability: 0.178
UMC-11; first compound 0.2 µM
  relative viability: 0.721
UMC-11; first compound 0.6325 µM
  relative viability: 0.848
UMC-11; first compound 2 µM
  relative viability: 0.815
UMC-11; first compound 6.325 µM
  relative viability: 0.739
UMC-11; first compound 20 µM
  relative viability: 0.369
